This experiment has as its target Botulinum neurotoxin type F light chain protease (Clostridium botulinum). Description: BoNT/F light chain protease inhibitors, dose response, biochemical, multiplex microsphere, Powder Set 03 (AID 720671). As to conditions: multiplex microsphere protease cleavage assay, BoNT/F LC.

Active and inactive are the calls of the source. The rule behind the calls is not given here. Some results are limits rather than exact numbers.

As usually defined, the EC50 is the midpoint of the concentration-response curve. Consider `CCNC(=S)Nc1ccc2nc(-c3ccccc3)c(-c3ccccc3)nc2c1`, for which the EC50 was > 20 µM (inactive).

The record behind these values is PubChem BioAssay AID720671 (NMMLSC, 2013).
